Reference: patent US10000499B2, “Methyl diazepane orexin receptor antagonists” (MERCK SHARP & DOHME CORP., priority 2014, dated 2018)
Where two headings read alike, the source gives them in different places.

Assays:
human orexin-2 receptor = target: T1, human orexin-2 receptor (Homo sapiens, UniProt O43614); assay: FLIPR Ca2+ flux assay, OX2R; assay type: cell-based; conditions: for Fold Selective: OX2R over OX1R, from FLIPR values
T1 construct: expressed in transfected cells; host or cells: CHO cells (grown under G418 selection)
T1 sequence (O43614 1-444): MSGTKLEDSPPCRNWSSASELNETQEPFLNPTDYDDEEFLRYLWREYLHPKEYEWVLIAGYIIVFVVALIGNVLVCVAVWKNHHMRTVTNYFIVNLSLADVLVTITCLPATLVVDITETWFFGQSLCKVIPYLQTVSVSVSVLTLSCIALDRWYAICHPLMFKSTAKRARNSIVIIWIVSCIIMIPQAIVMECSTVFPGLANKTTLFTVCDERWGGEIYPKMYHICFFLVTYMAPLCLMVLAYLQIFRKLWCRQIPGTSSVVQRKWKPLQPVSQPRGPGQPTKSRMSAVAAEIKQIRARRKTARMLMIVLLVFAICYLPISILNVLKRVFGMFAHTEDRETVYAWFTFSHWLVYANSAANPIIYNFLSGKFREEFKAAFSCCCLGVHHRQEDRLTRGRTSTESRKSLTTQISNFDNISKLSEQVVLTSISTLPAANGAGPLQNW
Experimental: (§1) For intracellular calcium measurements, Chinese hamster ovary (CHO) cells expressing the rat orexin-1 receptor or the human orexin-2 receptor, are grown in Iscove's modified DMEM containing 2 mM L-glutamine, […], 1% hypoxanthine-thymidine supplement, 100 U/ml penicillin, 100 μg/ml streptomycin and 10% heat-inactivated fetal calf serum (FCS). The cells are seeded at 20,000 cells/well into Becton-Dickinson black 384-well clear bottom sterile plates coated with poly-D-lysine. All reagents were from GIBCO-Invitrogen Corp. The seeded plates are incubated overnight at 37° C. and 5% CO2. Ala-6,12 human orexin-A as the agonist is prepared as a 1 mM stock solution in 1% bovine serum albumin (BSA) and diluted in assay buffer (HBSS containing 20 mM HEPES, 0.1% BSA and 2.5 mM probenecid, pH7.4) for use in the assay at a final concentration of 70 pM. Test compounds are prepared as 10 mM stock solution in DMSO, then diluted in 384-well plates, first in DMSO, then assay buffer. On the day of the assay, cells are washed 3 times with 100 μl assay buffer and then incubated for 60 min (37° C., 5% CO2) in 60 μl assay buffer containing 1 μM Fluo-4AM ester, 0.02% pluronic acid, and 1% BSA, The dye loading solution is then aspirated and cells are washed 3 times with 100 μl assay buffer, 30 μl of that same buffer is left in each well. Within the Fluorescent Imaging Plate Reader (FLIPR, Molecular Devices), test compounds are added to the plate in a volume of 25 μl, incubated for 5 min and finally 25 μl of agonist is added. Fluorescence is measured for each well at 1 second intervals for 5 minutes and the height of each fluorescence peak is compared to the height of the fluorescence peak induced by 70 pM Ala-6,12 orexin-A with buffer in place of antagonist. […] The intrinsic orexin receptor antagonist activity of a compound which may be used in the present invention may be determined by these assays.

rat orexin-1 receptor = target: T2, rat orexin-1 receptor (Rattus norvegicus, UniProt P56718); assay: FLIPR Ca2+ flux assay, OX1R; assay type: cell-based; conditions: CHO cells expressing rat orexin-1 receptor; agonist 70 pM Ala-6,12 orexin-A
T2 construct: expressed in transfected cells; host or cells: CHO cells (grown under G418 selection)
T2 sequence (P56718 1-416): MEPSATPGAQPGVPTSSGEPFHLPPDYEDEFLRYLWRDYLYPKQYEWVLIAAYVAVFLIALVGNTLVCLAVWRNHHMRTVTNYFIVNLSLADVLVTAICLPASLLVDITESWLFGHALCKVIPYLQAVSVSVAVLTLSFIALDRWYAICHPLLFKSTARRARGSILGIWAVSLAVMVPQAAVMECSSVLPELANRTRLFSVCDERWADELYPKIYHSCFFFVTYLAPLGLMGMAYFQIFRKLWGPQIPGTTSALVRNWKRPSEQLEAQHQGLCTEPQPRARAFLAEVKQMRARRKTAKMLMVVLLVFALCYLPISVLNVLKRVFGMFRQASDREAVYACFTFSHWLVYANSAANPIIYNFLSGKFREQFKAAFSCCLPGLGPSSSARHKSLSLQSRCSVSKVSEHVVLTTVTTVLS
Experimental: as §1

[1] = CHO cells expressing human orexin-2 receptor, agonist 70 pM Ala-6,12 orexin-A, read-out: OX2R FLIPR

Compound | Fold Selective (human orexin-2 receptor) | IC50 (rat orexin-1 receptor) | IC50 (human orexin-2 receptor; [1]) | IC50 (human orexin-2 receptor) | selectivity between orexin-2 receptor and orexin-1 receptor (in words) (human orexin-2 receptor; comparison with diazepane compounds of U.S. Pat. No. 8,685,961)
Cc1ccnc(N2CC[C@@H](C)N(C(=O)c3ccccc3-n3nccn3)CC2)c1 [Example 1, (R)-(2-(2H-1,2,3-triazol-2-yl)phenyl)(7-methyl-4-(4-methylpyridin-2-yl)-1,4-diazepan-1-yl)methanone] | 68 | > 10 µM | – | 147 nM | –
COc1ccnc(N2CC[C@@H](C)N(C(=O)c3ccccc3-n3nccn3)CC2)c1 [Example 2, (R)-(2-(2H-1,2,3-triazol-2-yl)phenyl)(4-(4-methoxypyridin-2-yl)-7-methyl-1,4-diazepan-1-yl)methanone] | 57 | 2.59 µM | 45 nM | – | –
COc1ccnc(N2CC[C@@H](C)N(C(=O)c3ccsc3-n3nccn3)CC2)c1 [Example 3, (R)-(2-(2H-1,2,3-triazol-2-yl)thiophen-3-yl)(4-(4-methoxypyridin-2-yl)-7-methyl-1,4-diazepan-1-yl)methanone] | 82 | > 10 µM | 122 nM | – | –
COc1ccnc(N2CC[C@@H](C)N(C(=O)c3ccccc3C3(C#N)CC3)CC2)c1 [Example 4, 1-(2-{[(7R)-4-(4-methoxypyridin-2-yl)-7-methyl-1,4-diazepan-1-yl]carbonyl}phenyl)cyclopropane-carbonitrile] | 61 | > 10 µM | 163 nM | – | –
COc1ccnc(N2CC[C@@H](C)N(C(=O)c3cccnc3OCC(F)F)CC2)c1 [Example 6, (5R)-4-{[2-(2,2-difluoroethoxy)pyridin-3-yl]carbonyl}-1-(4-methoxypyridin-2-yl)-5-methyl-1,4-diazepane] | 54 | > 10 µM | 183 nM | – | –
CCC(=O)N(C)c1cccc(N2CC[C@@H](C)N(C(=O)c3ccccc3-n3nccn3)CC2)n1 [Example 10, (R)-N-(6-(4-(2-(2H-1,2,3-triazol-2-yl)benzoyl)-5-methyl-1,4-diazepan-1-yl)pyridin-2-yl)-N-methylpropionamide] | – | > 10 µM | – | – | –
C[C@@H]1CCN(c2cccc(N3CCN(C)C3=O)n2)CCN1C(=O)c1ccccc1-n1nccn1 [Example 11, 1-methyl-3-{6-[(5R)-5-methyl-4-{[2-(2H-1,2,3-triazol-2-yl)phenyl]carbonyl}-1,4-diazepan-1-yl]pyridin-2-yl}imidazolidin-2-one] | 46 | 4.76 µM | 104 nM | – | –
C[C@@H]1CCN(c2cccc(N(C)C(=O)C3CC3)n2)CCN1C(=O)c1ccccc1-n1nccn1 [Example 18, N-methyl-N-{6-[(5R)-5-methyl-4-{[2-(2H-1,2,3-triazol-2-yl)phenyl]carbonyl}-1,4-diazepan-1-yl]pyridin-2-yl}cyclopropanecarboxamide] | 128 | 9.13 µM | 71 nM | – | –
C[C@@H]1CCN(c2cccc(C(C)(C)O)n2)CCN1C(=O)c1ccccc1-n1nccn1 [Example 20, (R)-(2-(2H-1,2,3-triazol-2-yl)phenyl)(4-(6-(2-hydroxypropan-2-yl)pyridin-2-yl)-7-methyl-1,4-diazepan-1-yl)methanone] | 61 | 1.96 µM | 32 nM | – | –
Cc1ccc(-n2nccn2)c(C(=O)N2CCCN(c3nc4ccccc4o3)CC2)c1 [Example B-3, reference compound] | – | – | – | – | greater selectivity for the orexin-1 receptor than for the orexin-2 receptor

Further lines, with some results ahead:

Fold Selective (human orexin-2 receptor) | IC50 (rat orexin-1 receptor) | IC50 (human orexin-2 receptor; [1]) | Compound | IC50 (human orexin-2 receptor) | selectivity between orexin-2 receptor and orexin-1 receptor (in words) (human orexin-2 receptor; comparison with diazepane compounds of U.S. Pat. No. 8,685,961)
97 | > 10 µM | 103 nM | COc1ccnc(N2CC[C@@H](C)N(C(=O)c3cccnc3-n3cccn3)CC2)c1 [Example 5, (5R)-1-(4-methoxypyridin-2-yl)-5-methyl-4-{[2-(1H-pyrazol-1-yl)pyridin-3-yl]carbonyl}-1,4-diazepane] | – | –
108 | > 10 µM | 92 nM | COc1ccnc(N2CC[C@@H](C)N(C(=O)c3cccnc3OCC(F)(F)F)CC2)c1 [Example 7, (5R)-1-(4-methoxypyridin-2-yl)-5-methyl-4-{[2-(2,2,2-trifluoroethoxy)pyridin-3-yl]carbonyl}-1,4-diazepane] | – | –
81 | > 10 µM | 123 nM | COc1ccnc(N2CC[C@@H](C)N(C(=O)c3ccccc3C3CCC3)CC2)c1 [Example 8, (5R)-4-[(2-cyclobutylphenyl)carbonyl]-1-(4-methoxypyridin-2-yl)-5-methyl-1,4-diazepane] | – | –
80 | > 10 µM | 125 nM | COc1ccnc(N2CC[C@@H](C)N(C(=O)c3ccccc3C3CC3)CC2)c1 [Example 9, (5R)-4-[(2-cyclopropylphenyl)carbonyl]-1-(4-methoxypyridin-2-yl)-5-methyl-1,4-diazepane] | – | –
117 | > 10 µM | 85 nM | CC(=O)N(C)c1cccc(N2CC[C@@H](C)N(C(=O)c3ccccc3-n3nccn3)CC2)n1 [Example 12, N-methyl-N-{6-[(5R)-5-methyl-4-{[2-(2H-1,2,3-triazol-2-yl)phenyl]carbonyl}-1,4-diazepan-1-yl]pyridin-2-yl}acetamide] | – | –
149 | > 10 µM | 67 nM | CCN(C(C)=O)c1cccc(N2CC[C@@H](C)N(C(=O)c3ccccc3-n3nccn3)CC2)n1 [Example 13, N-ethyl-N-{6-[(5R)-5-methyl-4-{[2-(2H-1,2,3-triazol-2-yl)phenyl]carbonyl}-1,4-diazepan-1-yl]pyridin-2-yl}acetamide] | – | –
55 | 3.18 µM | 58 nM | C[C@@H]1CCN(c2cccc(N3CCN(C)C3=O)n2)CCN1C(=O)c1cccc(F)c1-n1nccn1 [Example 14, 1-{6-[(5R)-4-{[3-fluoro-2-(2H-1,2,3-triazol-2-yl)phenyl]carbonyl}-5-methyl-1,4-diazepan-1-yl]pyridin-2-yl}-3-methylimidazolidin-2-one] | – | –
50 | > 10 µM | 197 nM | C[C@@H]1CCN(c2cccc(N3CCN(C)C3=O)n2)CCN1C(=O)c1cc(F)ccc1-n1nccn1 [Example 16, 1-{6-[(5R)-4-{[5-fluoro-2-(2H-1,2,3-triazol-2-yl)phenyl]carbonyl}-5-methyl-1,4-diazepan-1-yl]pyridin-2-yl}-3-methylimidazolidin-2-one] | – | –
208 | > 10 µM | 48 nM | CC(C)C(=O)N(C)c1cccc(N2CC[C@@H](C)N(C(=O)c3ccccc3-n3nccn3)CC2)n1 [Example 17, N,2-dimethyl-N-{6-[(5R)-5-methyl-4-{[2-(2H-1,2,3-triazol-2-yl)phenyl]carbonyl}-1,4-diazepan-1-yl]pyridin-2-yl}propanamide] | – | –
127 | 2.55 µM | 20 nM | CC(O)c1cccc(N2CC[C@@H](C)N(C(=O)c3ccccc3-n3nccn3)CC2)n1 (stereo partly drawn) [Example 19, (2-(2H-1,2,3-triazol-2-yl)phenyl)((7R)-4-(6-(1-hydroxyethyl)pyridin-2-yl)-7-methyl-1,4-diazepan-1-yl)methanone] | – | –
153 | > 10 µM | 65 nM | C[C@@H]1CCN(c2nccn3ccnc23)CCN1C(=O)c1ccccc1C1(C#N)CC1 [Example 21, (R)-1-(2-(4-(imidazo[1,2-a]pyrazin-8-yl)-7-methyl-1,4-diazepane-1-carbonyl)phenyl)cyclopropanecarbonitrile] | – | –
